Earlier results, collected in patent US10781456B2, “Carbon-neutral and carbon-positive photorespiration bypass routes supporting higher photosynthetic rate and yield” (Max-Planck-Gesellschaft zur Förderung der Wissenschaften …, priority 2015, dated 2020).
Where two headings read alike, the source gives them in different places.

How the values were obtained:
[1] = target: D-fructose 6-phosphate aldolase encoded by E. coli gene fsaA (UniProt P78055); details: cited from earlier work
[2] = target: D-fructose 6-phosphate aldolase encoded by E. coli gene fsaB (UniProt P32669); details: cited from earlier work
[3] = as a substrate, read-out: KM for D-fructose 6-phosphate
[4] = bound stated for both fsaA and fsaB enzymes, read-out: KM (condensation of glycolaldehyde as donor with D-glyceraldehyde 3-phosphate as acceptor)
[5] = as a substrate, read-out: KM for dihydroxyacetone phosphate

For O=P(O)(O)OC[C@H]1OC(O)[C@@H](O)[C@@H]1O (stereo partly drawn) [D-arabinose 5-phosphate], the Km ([1]; read-out: KM for D-arabinose 5-phosphate) is given as roughly 0.5 mM.

In the case of O=P(O)(O)OC[C@H]1OC(O)(CO)[C@@H](O)[C@@H]1O (stereo partly drawn) [D-fructose 6-phosphate], the Km [1, 3] is given as greater than 6 mM and the Km [2, 3] is given as greater than 6 mM.

For O=C[C@H](O)COP(=O)(O)O [D-glyceraldehyde 3-phosphate], the Km [1, 4] is given as less than 1 mM and the Km [2, 4] is given as less than 1 mM.

In the case of O=C(CO)COP(=O)(O)O [dihydroxyacetone phosphate], the Km [1, 5] is listed as greater than 25 mM and the Km [2, 5] is listed as greater than 25 mM.
